The values that follow come from patent publication US20170143712A1, “Methods of Treating Cancers, Immune and Autoimmune Diseases, and Inflammatory Diseases Based on BTK Occupancy and BTK Resynthesis Rate” (Acerta Pharma B.V., priority 2014, published 2017).

The subject of data set [1] is BCR signaling through BTK. Put plainly: Anti-IgM induced CD86 and CD69 on splenocyte B cells of CIA mice. It counts as in vivo, mouse. The note with it: splenocytes 3 hr after last dosing on day 14. On the procedure: FIG. 45 illustrates changes in a functional measure of BCR signalling through the CD86 marker. Mouse splenocytes were isolated from spleens from mice that were part of the mouse CIA study semi-therapeutic protocol, 3 hr after the last dosing on day 14 of the treatment and cryopreserved. After thawing, inhibition of anti-IgM-induced PD markers CD86 and CD69 on mouse splenocyte B cells were measured. Error bars represent the standard deviation for the 3 sets of splenocytes analyzed.
FIG. 46 illustrates changes in a functional measure of BCR signalling through the CD69 marker. Mouse splenocytes were isolated from spleens from mice that were part of the mouse CIA study semi-therapeutic protocol, 3 hr after the last dosing on day 14 of the treatment and cryopreserved. After thawing, inhibition of anti-IgM-induced PD markers CD86 and CD69 on mouse splenocyte B cells were measured. Error bars represent the standard deviation for the 3 sets of splenocytes analyzed.
Inhibition of the BCR signaling through BTK was evaluated by ex vivo stimulation of splenocytes using IgM and evaluation of CD86 and CD69 as functional responses of BCR stimulation.

Data set [2] deals with established type II collagen-induced arthritis (CIA) in DBA/1 mice. Put plainly: 14-day mouse established type II collagen-induced arthritis (CIA), PO QD (Example 10). It counts as in vivo. The note with it: for arthritis scores measured daily vs vehicle controls / disease-induced body weight loss (percent change from baseline) vs vehicle controls: p<0.05 on the days printed; for AUC (All Paws) - Corrected for Initial Score / Change in Body Weight (g) / Histopathology Summed Score Knees / Histopathology Summed Score Paws / Histopathology Summed Score Six-Joints / Paw Score AUC (All Paws): mean(SE); for spleen weights compared to vehicle controls: all dose groups PO QD. As to the method:
Prior to dosing, the candidate anti-inflammatory agents were reconstituted either by vortexing or stirring. The candidate anti-inflammatory agents were administered to the DBA/1 mice daily (QD) by the oral (PO) route.
Immunization with heterologous type II collagen (CII) induces arthritis in mice of the DBA/1 strain, which is genetically susceptible to this disease. To develop an experimental model of autoimmunity more adequate for the study of human rheumatoid arthritis (RA), male DBA/1 mice were injected intradermally (ID) with bovine type II collagen to induce arthritis as reported by Trentham et al (Trentham D E, Townes A S, Kang A H Autoimmunity to type II collagen: an experimental model of arthritis. J. Exper. Med. 1977, 146:857-868) and Bendele A (Bendele A, Animal models of rheumatoid arthritis. J. Musculoskelet. Neuronal Interact. 2001, 1(4):377-85). Male DBA/1 mice (n=114) that were 6-7 weeks old and weighed approximately 18-27 grams (mean 22 g) at enrollment (arthritis day 1) were obtained from Taconic Farms, Inc. The male DBA/1 mice were at least 6 weeks old at time of first immunization and were housed 3-5/cage in shoe-box polycarbonate cages with wire tops, wood chip bedding, and suspended food and water bottles. These animals were identified by a distinct number of ink marks at the base of the tail delineating animal number. After enrollment, all cages were labeled with protocol number, group number, and animal numbers.
The male DBA/1 (n=10/group for arthritis) were anaesthetized with Isoflurane, shaved at the base of the tail, and injected intradermally with 150 μL of Freund's Complete Adjuvant (Difco, Detroit, Mich.) containing bovine type II collagen (BBP, batch #7) (1 mg/ml) at the base of the tail on day 0 and again on day 21. […] Randomization was done after swelling was obviously established in at least one paw (score of 1) and attempts were made to ensure approximately equal mean scores of 0.5-1 across groups at the time of enrollment. […] The male DBA/1 mice were terminated on arthritis day 14 (3 hours post-dose).
Efficacy evaluation of the administered anti-inflammatory agents was based on animal body weights, clinical arthritis scores, arthritis scores expressed as area under the curve (AUC), and histopathology on fore paws, hind paws, and knees. Histopathology results were expressed as 4 paws, knees only, or 6 joints (knees included). Day 13 was used as the endpoint for analysis of body weight change since the male DBA/1 mice were fasted overnight prior to necropsy on day 14.

Another data set concerns psoriasis. The note with it: tyrosine kinase inhibitors used for malignancies; cited from earlier work.
Data set [3] deals with B cell receptor (BCR). Kind of data set: Ex vivo anti-IgM induced CD86 and CD69 expression on splenocyte B cells after oral dosing of mice. In kind it is in vivo, mouse. The note with it: single oral 25 mg/kg. As to the method:
(§1) B cell stimulation through the B cell receptor (BCR) with antibodies (e.g., anti-IgM) results in the activation of BTK and subsequent cellular changes, including the upregulation of various cell surface receptors. Measuring the inhibition of BCR induced protein phosphorylation downstream of Btk, and the inhibition of surface receptor upregulation provides a way to assess the Btk inhibitor activity. In the first study, the BTK target occupancy in splenocytes was measured over time, providing evidence for BTK resynthesis in the tissue compartment of interest.
(§2) Mice were sacrificed at 3, 6, 12, 18, and 24 hours after treatment with the BTK inhibitors (FIG. 27A, FIG. 27B, and FIG. 27C). Spleens were harvested and splenocyte preparations were made for flow cytometry analysis of B cell functions. Fresh or cryopreserved splenocytes were cultured with a-IgM to stimulate BCR, and the up-regulation of CD69, an early functional marker of B cell activation, was analyzed by flow cytometry.

Data set [4] concerns B cell receptor (BCR). The description is as above. It counts as in vivo. The note with it: Mus musculus, single oral 25 mg/kg, 3-24 hours, read-out: CD86 % inhibition over the entire time course.
The subject of the next data set is S6 phosphorylation. Put plainly: Basal and anti-IgM induced S6 phosphorylation in splenocytes after oral dosing of mice. In kind it is in vivo, mouse. The note with it: single oral 25 mg/kg; rank order Formula (II)>ibrutinib>Formula (XVII). As to the method:
as §1, §2
A downstream marker of BTK activity, S6 phosphorylation, was also monitored in this study. […] In a second study, the effects of another inhibitor of BTK that covalently inactivates the kinase, Formula (XXI), were compared with Formula (II) to evaluate the return of BCR function and B cell activation, as illustrated in FIG. 29A and FIG. 29B.

The mark [5] stands for this setting: 1 mg/kg PO QD, prophylactic paws.
Setting [6] is: 5 mg/kg PO QD, prophylactic paws.
The mark [7] stands for this setting: 5 mg/kg PO QD, therapeutic paws only.

Structures are written as SMILES. Like-named read-outs stand apart in the source and are kept apart here.

On to `CC#CC(=O)N1CC[C@@H](n2c(=O)n(-c3ccc(Oc4ccccc4)cc3)c3c(N)ncnc32)C1` [Formula (XXI), 6-amino-9-[(3R)-1-(2-butynoyl)-3-pyrrolidinyl]-7-(4-phenoxyphenyl)-7,9-dihydro-8H-purin-8-one], for which the “BCR-mediated signaling (anti-IgM induced CD86 and CD69)” value in data set [1] was “dose-responsive decreases in BCR-mediated signaling”. Besides, in data set [2] (1 mg/kg PO QD), the “six-joint histopathology, reduction of summed scores vs vehicle controls” value (“six-joint histopathology, reduction” for short) came out at 73%; the “total body weight loss from enrollment to study termination” value (“total body weight loss from enrollment” below) is “significantly inhibited”; the “AUC (All Paws) - Corrected for Initial Score” value (from here on “AUC (All Paws) - Corrected”) is recorded as 7.28(3.26); the “Change in Body Weight (g)” value is reported as “*0.33(0.82) g”. Besides, in data set [2] (1 mg/kg PO QD), the “Histopathology Summed Score Knees” value is “*3.45(1.22)”, the “Histopathology Summed Score Paws” value is “*4.14(1.27)”, the “Histopathology Summed Score Six-Joints” value is “*3.91(1.13)” and the “Paw Score AUC (All Paws)” value was “*14.43(4.11)”. In addition, the “disease-induced body weight loss (percent change from baseline) vs vehicle controls” value in data set [2] (1 mg/kg PO QD) was “significantly inhibited toward normal”. Also, in data set [2] (1 mg/kg PO QD, all paws), the “Clinical arthritis scores AUC, reduction vs vehicle controls” value stood at 65%; the “Clinical arthritis scores AUC, reduction when corrected for initial enrollment score” value was determined as 79%; the “arthritis scores measured daily vs vehicle controls” value is reported as “significantly reduced toward normal”. The “daily arthritis scores vs vehicle controls” value in data set [2] (setting [5]) is “significantly reduced toward normal”. In addition, in data set [2] (1 mg/kg PO QD, prophylactic paws only), the “Clinical arthritis scores AUC, reduction vs vehicle controls” value stood at 99%. Besides, in data set [2] (5 mg/kg PO QD), the “six-joint histopathology, reduction” value was 85%; the “total body weight loss from enrollment” value is recorded as “significantly inhibited”; the “AUC (All Paws) - Corrected” value is listed as “*−1.33(1.48)”; the “Change in Body Weight (g)” value was “*0.89(0.71) g”. In data set [2] (5 mg/kg PO QD), the “Histopathology Summed Score Knees” value is given as “*3.48(1.17)”, the “Histopathology Summed Score Paws” value is “*1.46(0.47)”, the “Histopathology Summed Score Six-Joints” value is reported as “*2.13(0.66)” and the “Paw Score AUC (All Paws)” value is given as “*5.83(1.53)”. In data set [2] (5 mg/kg PO QD), the “disease-induced body weight loss (percent change from baseline) vs vehicle controls” value is “significantly inhibited toward normal”. In data set [2] (5 mg/kg PO QD, all paws), the “Clinical arthritis scores AUC, reduction vs vehicle controls” value is reported as 86%; the “Clinical arthritis scores AUC, reduction when corrected for initial enrollment score” value is 104%; the “arthritis scores measured daily vs vehicle controls” value is on record as “significantly reduced toward normal”. The “daily arthritis scores vs vehicle controls” value in data set [2] (setting [6]) is “significantly reduced toward normal”. For the same compound, the “Clinical arthritis scores AUC, reduction vs vehicle controls” value in data set [2] (5 mg/kg PO QD, prophylactic paws only) was 100%. Besides, the “daily arthritis scores vs vehicle controls” value in data set [2] (5 mg/kg PO QD, therapeutic paws) is “significantly reduced toward normal”. In data set [2] (setting [7]), the “Clinical arthritis scores AUC, reduction vs vehicle controls” value is 66% and the “Clinical arthritis scores AUC, reduction when corrected for initial enrollment score” value is on record as 113%. In addition, the “spleen weights compared to vehicle controls” value in data set [2] is given as “not significantly affected”.
With `Cc1ccc(C(=O)Nc2ccc(CN3CCN(C)CC3)c(C(F)(F)F)c2)cc1C#Cc1cnc2cccnn12` [Ponatinib], in the data set on psoriasis, the “effect on psoriasis / skin in patients” value is “induces an almost psoriasis-like disease”.
On to `C=CC(=O)N1CCC[C@@H](n2nc(-c3ccc(Oc4ccccc4)cc3)c3c(N)ncnc32)C1` [ibrutinib, (R)-1-(3-(4-amino-3-(4-phenoxyphenyl)-1H-pyrazolo[3,4-d]pyrimidin-1-yl)piperidin-1-yl)prop-2-en-1-one], for which, in the data set on B cell receptor (BCR) [3] (Mus musculus, B-cell, 3-24 hours, read-out: CD69 % inhibition over the entire time course), the inhibition at 25 mg/kg came to 83.4%. In addition, the “inhibition of ex vivo anti-IgM induced responses in B cells” value in the data set on B cell receptor (BCR) [3] (3 hours post-dose) was “near complete inhibition”. In the data set with B cell receptor (BCR) [3] (persisting for 24 hours), the “inhibition of CD86 and CD69 expression” value is given as “partial inhibition”. Besides, the inhibition at 25 mg/kg with B cell receptor (BCR) [4] was found to be 62.9%. For the same compound, the “basal state and anti-IgM induced S6 phosphorylation” value in the data set on S6 phosphorylation is “inhibited both basal state and anti-IgM induced S6 phosphorylation”. Besides, in data set [1], the “BCR-mediated signaling (anti-IgM induced CD86 and CD69)” value is “dose-responsive decreases in BCR-mediated signaling”. Moreover, in data set [2] (1 mg/kg PO QD), the “AUC (All Paws) - Corrected” value is 20.81(4.47), the “Change in Body Weight (g)” value is recorded as −1.28(0.69) g, the “Histopathology Summed Score Knees” value was “‡10.15(1.16)” and the “Histopathology Summed Score Paws” value is 10.30(1.84). In addition, in data set [2] (1 mg/kg PO QD), the “Histopathology Summed Score Six-Joints” value is 10.25(1.36), the “Paw Score AUC (All Paws)” value is on record as 28.29(5.18) and the “disease-induced body weight loss (percent change from baseline) vs vehicle controls” value is “significantly inhibited toward normal”. Moreover, the “daily arthritis scores vs vehicle controls” value in data set [2] (setting [5]) is on record as “significantly reduced toward normal”. In addition, in data set [2] (5 mg/kg PO QD), the “six-joint histopathology, reduction” value was 79%; the “total body weight loss from enrollment” value was “significantly inhibited”; the “AUC (All Paws) - Corrected” value is listed as “*3.68(2.18)”; the “Change in Body Weight (g)” value was “*0.45(0.65) g”. In data set [2] (5 mg/kg PO QD), the “Histopathology Summed Score Paws” value is recorded as “*3.63(1.07)”, the “Histopathology Summed Score Six-Joints” value was “*3.11(0.95)” and the “disease-induced body weight loss (percent change from baseline) vs vehicle controls” value is listed as “significantly inhibited toward normal”. For the same compound, in data set [2] (5 mg/kg PO QD, all paws), the “arthritis scores measured daily vs vehicle controls” value is reported as “significantly reduced toward normal”. In addition, the “daily arthritis scores vs vehicle controls” value in data set [2] (setting [6]) is on record as “significantly reduced toward normal”. In addition, in data set [2] (25 mg/kg PO QD), the “six-joint histopathology, reduction” value stood at 94%; the “total body weight loss from enrollment” value is given as “significantly inhibited”; the “AUC (All Paws) - Corrected” value was “*−4.09(1.58)”; the “Change in Body Weight (g)” value is recorded as “*0.83(0.62) g”. Besides, in data set [2] (25 mg/kg PO QD), the “Histopathology Summed Score Knees” value is “*0.65(0.29)”, the “Histopathology Summed Score Paws” value is given as “*0.91(0.48)”, the “Histopathology Summed Score Six-Joints” value is recorded as “*0.83(0.30)” and the “Paw Score AUC (All Paws)” value is “*3.06(1.08)”. Besides, in data set [2] (25 mg/kg PO QD), the “disease-induced body weight loss (percent change from baseline) vs vehicle controls” value was “significantly inhibited toward normal”. Besides, the “arthritis scores measured daily vs vehicle controls” value in data set [2] (25 mg/kg PO QD, all paws) was “significantly reduced toward normal”. In addition, the “daily arthritis scores vs vehicle controls” value in data set [2] (25 mg/kg PO QD, prophylactic paws) is recorded as “significantly reduced toward normal”. Further, in data set [2] (25 mg/kg PO QD, therapeutic paws), the “daily arthritis scores vs vehicle controls” value is “significantly reduced toward normal”. The “spleen weights compared to vehicle controls” value in data set [2] is “not significantly affected”.

As a reminder, the inhibition is the relative decrease from the control value, in per cent.
